Reference: ChEMBL document CHEMBL4804286, “3-amino-4-(4-(4 (dimethylcarbamoyl) phenyl)-1,4-diazepan-1-yl) thieno [2,3-b] pyridine-2-carboxamide for use in cancer therapy and formulations comprising the same” (2020)
Where “and” joins values, the source holds several entries; their conditions need not be identical. Equal values may be shown once. Calls of active or inactive are those of the source. No cut-off for these calls is given here.

Assays:
[1] = biological target: AP2-associated protein kinase 1 (Homo sapiens) (UniProt Q2M2I8); assay: Inhibition of human AAK1 assessed as percent of control at 2000 nM by KINOMEscan assay relative to control; set-up: scale not given: the % may be the effect or the level left
[2] = biological target: Aurora kinase B (Homo sapiens) (UniProt Q96GD4); assay: Inhibition of human AURKB assessed as percent of control at 2000 nM by KINOMEscan assay relative to control; set-up: scale not given: the % may be the effect or the level left
[3] = biological target: Tyrosine-protein kinase BTK (Homo sapiens) (UniProt Q06187); assay: Inhibition of human BTK assessed as percent of control at 2000 nM by KINOMEscan assay relative to control; set-up: scale not given: the % may be the effect or the level left
[4] = biological target: Calcium/calmodulin-dependent protein kinase type 1G (Homo sapiens) (UniProt Q96NX5); assay: Inhibition of human CAMK1G assessed as percent of control at 2000 nM by KINOMEscan assay relative to control; set-up: scale not given: the % may be the effect or the level left
[5] = biological target: Calcium/calmodulin-dependent protein kinase type II subunit gamma (Homo sapiens) (UniProt Q13555); assay: Inhibition of human CAMK2G assessed as percent of control at 2000 nM by KINOMEscan assay relative to control; set-up: scale not given: the % may be the effect or the level left
[6] = test system: Epidermal growth factor receptor (Homo sapiens), P00533 [L861Q]; assay: Inhibition of human EGFR L861Q mutant assessed as percent of control at 2000 nM by KINOMEscan assay relative to control; set-up: scale not given: the % may be the effect or the level left
[7] = biological target: Receptor tyrosine-protein kinase erbB-4 (Homo sapiens) (UniProt Q15303); assay: Inhibition of human ERBB4 assessed as percent of control at 2000 nM by KINOMEscan assay relative to control; set-up: scale not given: the % may be the effect or the level left
[8] = biological target: LIM domain kinase 1 (Homo sapiens) (UniProt P53667); assay: Inhibition of human LIMK1 assessed as percent of control at 2000 nM by KINOMEscan assay relative to control; set-up: scale not given: the % may be the effect or the level left
[9] = biological target: Mitogen-activated protein kinase kinase kinase 15 (Homo sapiens) (UniProt Q6ZN16); assay: Inhibition of human MAP3K15 assessed as percent of control at 2000 nM by KINOMEscan assay relative to control; set-up: scale not given: the % may be the effect or the level left
Chain of Mitogen-activated protein kinase kinase kinase 15 (Homo sapiens) (Q6ZN16 whole entry): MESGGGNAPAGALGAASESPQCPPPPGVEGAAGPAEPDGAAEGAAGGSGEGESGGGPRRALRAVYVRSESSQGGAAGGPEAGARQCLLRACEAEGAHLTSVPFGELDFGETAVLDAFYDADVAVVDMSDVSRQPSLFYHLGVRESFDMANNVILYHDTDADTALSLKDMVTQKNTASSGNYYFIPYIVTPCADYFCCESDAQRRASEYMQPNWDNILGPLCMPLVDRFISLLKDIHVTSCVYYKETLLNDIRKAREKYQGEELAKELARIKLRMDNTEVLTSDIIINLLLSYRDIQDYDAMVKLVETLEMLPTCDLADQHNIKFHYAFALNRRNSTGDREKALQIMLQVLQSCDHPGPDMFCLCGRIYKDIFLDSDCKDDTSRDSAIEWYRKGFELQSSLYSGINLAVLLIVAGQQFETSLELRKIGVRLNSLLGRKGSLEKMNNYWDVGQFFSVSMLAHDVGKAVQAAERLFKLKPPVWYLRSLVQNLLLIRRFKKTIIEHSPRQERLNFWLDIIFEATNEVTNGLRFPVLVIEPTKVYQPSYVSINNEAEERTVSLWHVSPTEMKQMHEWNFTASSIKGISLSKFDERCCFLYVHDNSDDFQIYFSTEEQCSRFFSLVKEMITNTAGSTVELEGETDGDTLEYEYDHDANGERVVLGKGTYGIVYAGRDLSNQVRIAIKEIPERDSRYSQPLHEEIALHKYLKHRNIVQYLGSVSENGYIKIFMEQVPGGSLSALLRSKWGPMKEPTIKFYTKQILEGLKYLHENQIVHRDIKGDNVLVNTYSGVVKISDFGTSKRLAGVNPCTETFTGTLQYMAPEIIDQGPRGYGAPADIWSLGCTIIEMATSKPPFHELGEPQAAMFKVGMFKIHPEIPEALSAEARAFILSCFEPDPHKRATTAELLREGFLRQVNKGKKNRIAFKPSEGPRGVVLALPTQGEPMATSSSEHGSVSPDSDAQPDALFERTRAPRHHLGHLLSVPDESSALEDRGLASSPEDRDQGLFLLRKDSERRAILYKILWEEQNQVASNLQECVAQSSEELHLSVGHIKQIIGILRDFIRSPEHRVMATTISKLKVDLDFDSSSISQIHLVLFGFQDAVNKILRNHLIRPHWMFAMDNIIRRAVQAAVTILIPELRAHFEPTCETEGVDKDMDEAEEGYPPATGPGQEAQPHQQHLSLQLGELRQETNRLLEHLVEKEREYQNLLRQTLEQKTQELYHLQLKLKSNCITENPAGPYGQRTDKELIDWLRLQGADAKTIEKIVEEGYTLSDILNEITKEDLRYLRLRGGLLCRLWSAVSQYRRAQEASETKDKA

[10] = biological target: Dual specificity mitogen-activated protein kinase kinase 7 (Homo sapiens) (UniProt O14733); assay: Inhibition of human MKK7 assessed as percent of control at 2000 nM by KINOMEscan assay relative to control; set-up: scale not given: the % may be the effect or the level left
Chain of Dual specificity mitogen-activated protein kinase kinase 7 (Homo sapiens) (O14733 whole entry): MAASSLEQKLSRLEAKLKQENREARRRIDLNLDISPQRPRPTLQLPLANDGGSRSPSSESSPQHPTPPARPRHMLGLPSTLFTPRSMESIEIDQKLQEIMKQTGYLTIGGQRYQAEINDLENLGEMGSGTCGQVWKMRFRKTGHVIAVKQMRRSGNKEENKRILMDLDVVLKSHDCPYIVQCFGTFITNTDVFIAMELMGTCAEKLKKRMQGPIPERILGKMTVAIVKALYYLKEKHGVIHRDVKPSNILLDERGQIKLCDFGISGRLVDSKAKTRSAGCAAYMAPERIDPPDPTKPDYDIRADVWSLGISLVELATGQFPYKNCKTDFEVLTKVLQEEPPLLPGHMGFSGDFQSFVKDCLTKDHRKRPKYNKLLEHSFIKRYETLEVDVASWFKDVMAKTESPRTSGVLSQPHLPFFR

[11] = biological target: MAP kinase-interacting serine/threonine-protein kinase 1 (Homo sapiens) (UniProt Q9BUB5); assay: Inhibition of human MKNK1 assessed as percent of control at 2000 nM by KINOMEscan assay relative to control; set-up: scale not given: the % may be the effect or the level left
Chain of MAP kinase-interacting serine/threonine-protein kinase 1 (Homo sapiens) (Q9BUB5 whole entry, looked up): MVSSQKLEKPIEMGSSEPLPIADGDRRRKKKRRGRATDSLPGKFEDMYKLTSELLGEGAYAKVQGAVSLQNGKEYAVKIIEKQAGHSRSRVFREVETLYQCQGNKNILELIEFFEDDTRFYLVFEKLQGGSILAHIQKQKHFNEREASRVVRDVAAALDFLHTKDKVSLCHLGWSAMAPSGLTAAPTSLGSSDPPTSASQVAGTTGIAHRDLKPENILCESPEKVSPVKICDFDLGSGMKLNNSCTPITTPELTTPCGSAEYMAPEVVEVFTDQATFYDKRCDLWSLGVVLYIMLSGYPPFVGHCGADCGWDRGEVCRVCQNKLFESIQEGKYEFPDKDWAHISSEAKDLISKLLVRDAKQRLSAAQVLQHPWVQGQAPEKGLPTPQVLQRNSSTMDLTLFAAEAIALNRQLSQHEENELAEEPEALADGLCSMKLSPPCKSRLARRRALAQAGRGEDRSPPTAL

[12] = biological target: Serine/threonine-protein kinase MRCK alpha (Homo sapiens) (UniProt Q5VT25); assay: Inhibition of human MRCKA assessed as percent of control at 2000 nM by KINOMEscan assay relative to control; set-up: scale not given: the % may be the effect or the level left
Chain of Serine/threonine-protein kinase MRCK alpha (Homo sapiens) (Q5VT25 whole entry): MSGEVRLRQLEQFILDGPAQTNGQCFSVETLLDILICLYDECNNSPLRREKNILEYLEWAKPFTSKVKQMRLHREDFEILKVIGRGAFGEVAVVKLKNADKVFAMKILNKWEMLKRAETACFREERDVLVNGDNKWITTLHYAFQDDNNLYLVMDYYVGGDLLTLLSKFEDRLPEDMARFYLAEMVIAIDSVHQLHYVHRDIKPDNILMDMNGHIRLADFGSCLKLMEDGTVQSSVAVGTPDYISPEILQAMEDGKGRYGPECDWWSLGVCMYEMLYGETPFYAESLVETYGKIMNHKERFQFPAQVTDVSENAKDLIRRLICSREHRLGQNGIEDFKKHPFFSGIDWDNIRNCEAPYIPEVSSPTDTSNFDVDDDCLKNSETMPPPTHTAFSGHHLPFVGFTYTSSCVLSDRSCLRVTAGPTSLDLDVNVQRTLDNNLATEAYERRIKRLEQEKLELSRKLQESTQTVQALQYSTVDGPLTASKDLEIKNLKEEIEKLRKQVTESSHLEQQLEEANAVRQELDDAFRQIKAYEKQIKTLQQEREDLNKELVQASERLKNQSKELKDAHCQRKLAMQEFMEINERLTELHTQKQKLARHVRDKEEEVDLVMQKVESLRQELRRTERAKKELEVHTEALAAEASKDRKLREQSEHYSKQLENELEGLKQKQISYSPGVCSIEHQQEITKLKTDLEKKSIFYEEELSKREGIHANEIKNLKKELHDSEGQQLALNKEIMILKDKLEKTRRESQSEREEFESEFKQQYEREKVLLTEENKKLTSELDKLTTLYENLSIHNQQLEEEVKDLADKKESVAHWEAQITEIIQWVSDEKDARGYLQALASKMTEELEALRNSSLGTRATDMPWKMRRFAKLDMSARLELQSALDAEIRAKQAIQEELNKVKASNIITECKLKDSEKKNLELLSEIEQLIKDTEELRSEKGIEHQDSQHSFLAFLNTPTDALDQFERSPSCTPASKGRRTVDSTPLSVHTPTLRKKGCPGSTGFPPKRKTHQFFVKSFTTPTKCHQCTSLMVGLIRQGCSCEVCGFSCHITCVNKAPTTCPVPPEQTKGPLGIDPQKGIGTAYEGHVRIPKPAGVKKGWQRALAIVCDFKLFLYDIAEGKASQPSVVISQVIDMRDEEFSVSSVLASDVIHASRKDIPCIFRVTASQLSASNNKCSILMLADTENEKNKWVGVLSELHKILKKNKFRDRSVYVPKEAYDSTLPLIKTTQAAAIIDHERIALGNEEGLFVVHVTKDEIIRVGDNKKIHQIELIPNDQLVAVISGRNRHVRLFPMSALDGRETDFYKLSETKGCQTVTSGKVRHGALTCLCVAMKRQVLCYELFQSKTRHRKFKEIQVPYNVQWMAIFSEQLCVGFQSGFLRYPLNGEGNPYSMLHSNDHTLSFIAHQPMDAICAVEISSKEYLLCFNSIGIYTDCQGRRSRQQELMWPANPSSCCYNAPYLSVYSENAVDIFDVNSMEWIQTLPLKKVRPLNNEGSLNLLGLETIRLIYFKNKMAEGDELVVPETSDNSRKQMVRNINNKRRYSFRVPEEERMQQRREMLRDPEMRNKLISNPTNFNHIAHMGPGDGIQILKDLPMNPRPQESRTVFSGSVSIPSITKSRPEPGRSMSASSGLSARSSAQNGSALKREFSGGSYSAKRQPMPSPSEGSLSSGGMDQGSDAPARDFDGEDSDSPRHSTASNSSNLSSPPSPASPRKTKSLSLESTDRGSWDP

[13] = biological target: Serine/threonine-protein kinase Nek3 (Homo sapiens) (UniProt P51956); assay: Inhibition of human NEK3 assessed as percent of control at 2000 nM by KINOMEscan assay relative to control; set-up: scale not given: the % may be the effect or the level left
[14] = biological target: Serine/threonine-protein kinase Nek5 (Homo sapiens) (UniProt Q6P3R8); assay: Inhibition of human NEK5 assessed as percent of control at 2000 nM by KINOMEscan assay relative to control; set-up: scale not given: the % may be the effect or the level left
[15] = biological target: Phosphatidylinositol 4-kinase beta (Homo sapiens) (UniProt Q9UBF8); assay: Inhibition of human PIK4CB assessed as percent of control at 2000 nM by KINOMEscan assay relative to control; set-up: scale not given: the % may be the effect or the level left
[16] = biological target: Serine/threonine-protein kinase PLK2 (Homo sapiens) (UniProt Q9NYY3); assay: Inhibition of human PLK2 assessed as percent of control at 2000 nM by KINOMEscan assay relative to control; set-up: scale not given: the % may be the effect or the level left
[17] = biological target: Protein kinase C epsilon type (Homo sapiens) (UniProt Q02156); assay: Inhibition of human PRKCE assessed as percent of control at 2000 nM by KINOMEscan assay relative to control; set-up: scale not given: the % may be the effect or the level left
[18] = biological target: Proto-oncogene tyrosine-protein kinase ROS (Homo sapiens) (UniProt P08922); assay: Inhibition of human ROS1 assessed as percent of control at 2000 nM by KINOMEscan assay relative to control; set-up: scale not given: the % may be the effect or the level left
[19] = biological target: Serine/threonine-protein kinase Sgk2 (Homo sapiens) (UniProt Q9HBY8); assay: Inhibition of human SGK2 assessed as percent of control at 2000 nM by KINOMEscan assay relative to control; set-up: scale not given: the % may be the effect or the level left
[20] = biological target: Serine/threonine-protein kinase Sgk3 (Homo sapiens) (UniProt Q96BR1); assay: Inhibition of human SGK3 assessed as percent of control at 2000 nM by KINOMEscan assay relative to control; set-up: scale not given: the % may be the effect or the level left
[21] = biological target: Dual specificity protein kinase TTK (Homo sapiens) (UniProt P33981); assay: Inhibition of human TTK assessed as percent of control at 2000 nM by KINOMEscan assay relative to control; set-up: scale not given: the % may be the effect or the level left
Chain of Dual specificity protein kinase TTK (Homo sapiens) (P33981 whole entry): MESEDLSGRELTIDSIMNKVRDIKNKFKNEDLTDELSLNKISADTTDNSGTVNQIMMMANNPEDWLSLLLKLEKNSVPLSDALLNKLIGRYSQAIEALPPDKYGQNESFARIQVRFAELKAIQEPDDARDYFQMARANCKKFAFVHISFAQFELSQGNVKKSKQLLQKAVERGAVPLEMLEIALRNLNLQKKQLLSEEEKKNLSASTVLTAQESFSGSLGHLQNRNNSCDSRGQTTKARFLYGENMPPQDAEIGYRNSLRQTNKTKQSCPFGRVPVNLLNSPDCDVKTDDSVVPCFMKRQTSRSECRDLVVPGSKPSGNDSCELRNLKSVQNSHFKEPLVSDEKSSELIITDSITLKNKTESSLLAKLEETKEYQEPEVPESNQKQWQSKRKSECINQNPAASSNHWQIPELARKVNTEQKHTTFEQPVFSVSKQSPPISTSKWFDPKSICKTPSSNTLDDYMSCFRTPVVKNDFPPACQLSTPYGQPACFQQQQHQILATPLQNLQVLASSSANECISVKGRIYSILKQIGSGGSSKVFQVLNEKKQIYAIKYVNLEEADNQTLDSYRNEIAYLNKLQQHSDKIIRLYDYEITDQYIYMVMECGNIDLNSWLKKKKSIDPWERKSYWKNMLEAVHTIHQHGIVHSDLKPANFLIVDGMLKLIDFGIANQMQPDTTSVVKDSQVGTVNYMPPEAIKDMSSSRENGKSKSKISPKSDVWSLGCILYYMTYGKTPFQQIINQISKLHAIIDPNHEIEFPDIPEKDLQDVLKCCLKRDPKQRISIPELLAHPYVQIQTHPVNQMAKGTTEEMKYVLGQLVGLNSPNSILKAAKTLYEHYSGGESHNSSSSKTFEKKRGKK

[22] = test system: Myc-CaP; assay: Antitumor activity against murine castration-resistant Myc-CaP cells xenografted in male FVB mouse assessed as suppression of tumor weight in presence of enzalutamide; type: functional

## CN(C)C(=O)c1ccc(N2CCCN(c3ccnc4sc(C(N)=O)c(N)c34)CC2)cc1
[1]
  Activity: 94% and 90%
[2]
  Activity: 91% and 90%
[3]
  Activity: 81% and 77%
[4]
  Activity: 99%
[5]
  Activity: 100%
[6]
  Activity: 78% and 100%
[7]
  Activity: 85% and 100%
[8]
  Activity: 100%
[9]
  Activity: 97% and 92%
[10]
  Activity: 100% and 85%
[11]
  Activity: 94% and 79%
[12]
  Activity: 94% and 100%
[13]
  Activity: 100% and 76%
[14]
  Activity: 94% and 100%
[15]
  Activity: 65%
[15]; INHIBITOR
  Activity: 33%
[16]
  Activity: 100% and 86%
[17]
  Activity: 93% and 97%
[18]
  Activity: 95% and 100%
[19]
  Activity: 100% and 81%
[20]
  Activity: 79% and 80%
[21]
  Activity: 83% and 80%
[22]
  Activity: Active
